Where a name gives a salt, the structure may show the parent alone.
Assay: Solubility of dicyclohexylamine salts: amounts of solvents needed to dissolve each compound at reflux
Type: physicochemical
Details: amounts approximate, same quantity of each compound
From the text: In particular, the amounts of solvents needed to dissolve each compound at reflux are provided.
The amounts of solvents needed to dissolve the salts are approximate.

Structure (SMILES)	amount of solvent needed to dissolve the compound at reflux (acetone)	amount of solvent needed to dissolve the compound at reflux (isopropyl acetate)
CC(=O)c1ccccc1CC[C@@H](SCC1(CC(=O)O)CC1)c1cccc(/C=C/c2ccc3ccc(Cl)cc3n2)c1 [IIa, (R)-(E)-1-(((1-(3-(2-(7-chloro-2-quinolinyl)ethenyl)phenyl)-3-(2-acetylphenyl)propyl)thio)methyl)cyclopropane acetic acid dicyclohexylamine salt]	100 volumes acetone	45 volumes isopropyl acetate
COC(=O)c1ccccc1CC[C@@H](SCC1(CC(=O)O)CC1)c1cccc(/C=C/c2ccc3ccc(Cl)cc3n2)c1 [R = —CO2CH3]	50 volumes acetone	20 volumes isopropyl acetate

Reference: patent US8163924B2, “Process for preparing a leukotriene antagonist and an intermediate thereof” (Moehs Ibérica, S.L., priority 2007, dated 2012)
